From patent US9708314B2, “Heterocyclic amide compound” (NISSAN CHEMICAL INDUSTRIES, LTD., priority 2013, dated 2017)

Assays:
Format in all cases: in vivo
[1] = system: Lolium multiflorum Lam.; test: Test Example 4: herbicidal effect by application to foliage (diluvial soil, plastic box); conditions: Application herbicide amount 320 g/ha; foliage application
Outline: (§1)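 Greenhouse plants (25° C. to 30° C., 14 d, diluvial soil) receive a foliar spray of water-diluted emulsifiable formulation at defined g/ha. Grading after 3 weeks uses a six-step herbicidal-ratio scale, with 4 covering 70% to <90% and 1 covering 5% to <20%.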

[2] = system: Stellaria media; test: as above; conditions: Application herbicide amount 320 g/ha; foliage application
Outline: as §1

[3] = system: Digitaria ciliaris; test: as above; conditions: Application herbicide amount 320 g/ha; foliage application
Outline: as §1

[4] = system: Avena fatua; test: as above; conditions: Application herbicide amount 320 g/ha; foliage application
Outline: as §1

[5] = system: Alopecurus myosuroides; test: as above; conditions: Application herbicide amount 320 g/ha; foliage application
Outline: as §1

[6] = system: Chenopodium album; test: as above; conditions: Application herbicide amount 320 g/ha; foliage application
Outline: as §1

[7] = system: Apera spica-venti.; test: as above; conditions: Application herbicide amount 320 g/ha; foliage application
Outline: as §1

[8] = system: Galium spurium; test: as above; conditions: Application herbicide amount 320 g/ha; foliage application
Outline: as §1

[9] = system: Amaranthus retroflexus; test: as above; conditions: Application herbicide amount 320 g/ha; foliage application
Outline: as §1

[10] = system: Echinochloa crus-galli var. crus-galli; test: as above; conditions: Application herbicide amount 320 g/ha; foliage application
Outline: as §1

[11] = system: Veronica persica; test: as above; conditions: Application herbicide amount 320 g/ha; foliage application
Outline: as §1

[12] = system: Setaria viridis; test: as above; conditions: Application herbicide amount 320 g/ha; foliage application
Outline: as §1

[13] = system: Abutilon theophrasti; test: as above; conditions: Application herbicide amount 320 g/ha; foliage application
Outline: as §1

[14] = system: directly sowed Oryza sativa; test: Test Example 4: effect on crop by application to foliage (diluvial soil, plastic box); conditions: Application herbicide amount 320 g/ha; foliage application
Outline: as §1

[15] = system: Glycine max; test: as above; conditions: Application herbicide amount 320 g/ha; foliage application
Outline: as §1

[16] = system: Zea mays; test: as above; conditions: Application herbicide amount 320 g/ha; foliage application
Outline: as §1

[17] = system: Brassica campestris L.; test: as above; conditions: Application herbicide amount 320 g/ha; foliage application
Outline: as §1

[18] = system: Beta vulgaris ssp. vulgaris; test: as above; conditions: Application herbicide amount 320 g/ha; foliage application
Outline: as §1

[19] = system: Triticum aestivum; test: as above; conditions: Application herbicide amount 320 g/ha; foliage application
Outline: as §1

[20] = system: Echinochloa oryzacola Vasing.; test: Test Example 1: herbicidal activity, application before weed generation in submerged conditions; conditions: Application herbicide amount 320 g/ha; Seventeenth Table
Outline: (§2)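 Water-diluted emulsion formulation is applied onto flood water (4 cm deep) covering alluvial soil on the day weed seeds are sown, after transplanting 2.5 leaf stage rice. Rates are expressed per hectare. Injury or control is graded 0–5 three weeks later.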

[21] = system: Monochoria vaginalis; test: as above; conditions: Application herbicide amount 320 g/ha; Seventeenth Table
Outline: as §2

[22] = system: Scirpus juncoides; test: as above; conditions: Application herbicide amount 320 g/ha; Seventeenth Table
Outline: as §2

| SMILES | K (Lolium multiflorum Lam.) herbicidal effect grade [1] | P (Stellaria media) herbicidal effect grade [2] | F (Digitaria ciliaris) herbicidal effect grade [3] | I (Avena fatua) herbicidal effect grade [4] | J (Alopecurus myosuroides) herbicidal effect grade [5] | O (Chenopodium album) herbicidal effect grade [6] | L (Apera spica-venti.) herbicidal effect grade [7] | Q (Galium spurium) herbicidal effect grade [8] | N (Amaranthus retroflexus) herbicidal effect grade [9] | H (Echinochloa crus-galli var. crus-galli) herbicidal effect grade [10] | R (Veronica persica) herbicidal effect grade [11] | G (Setaria viridis) herbicidal effect grade [12] | M (Abutilon theophrasti) herbicidal effect grade [13] | b (directly sowed Oryza sativa) effect on crop grade [14] | d (Glycine max) effect on crop grade [15] | c (Zea mays) effect on crop grade [16] | g (Brassica campestris L.) effect on crop grade [17] | f (Beta vulgaris ssp. vulgaris) effect on crop grade [18] | e (Triticum aestivum) effect on crop grade [19] | A: Echinochloa oryzicola Vasing. (herbicidal effect grade) [20] | other results |
| --- | --- | --- | --- | --- | --- | --- | --- | --- | --- | --- | --- | --- | --- | --- | --- | --- | --- | --- | --- | --- | --- |
| COCCOCc1nnc2c(C(=O)Nc3nnco3)ccc(C(F)(F)F)n12 [1-107] | 3 (Herbicidal ratio of 40% or more and less than 70%) | 5 (Herbicidal ratio of 90% or more (almost completely withered)) | 5 (Herbicidal ratio of 90% or more (almost completely withered)) | 4 (Herbicidal ratio of 70% or more and less than 90%) | 3 (Herbicidal ratio of 40% or more and less than 70%) | 5 (Herbicidal ratio of 90% or more (almost completely withered)) | 3 (Herbicidal ratio of 40% or more and less than 70%) | 4 (Herbicidal ratio of 70% or more and less than 90%) | 5 (Herbicidal ratio of 90% or more (almost completely withered)) | 5 (Herbicidal ratio of 90% or more (almost completely withered)) | 5 (Herbicidal ratio of 90% or more (almost completely withered)) | 5 (Herbicidal ratio of 90% or more (almost completely withered)) | 4 (Herbicidal ratio of 70% or more and less than 90%) | 4 (Herbicidal ratio of 70% or more and less than 90%) | 5 (Herbicidal ratio of 90% or more (almost completely withered)) | 1 (Herbicidal ratio of 5% or more and less than 20%) | 5 (Herbicidal ratio of 90% or more (almost completely withered)) | 5 (Herbicidal ratio of 90% or more (almost completely withered)) | 3 (Herbicidal ratio of 40% or more and less than 70%) | 5 (Herbicidal ratio of 90% or more (almost completely withered)) | C: Monochoria vaginalis (herbicidal effect grade) [21]: 5 (Herbicidal ratio of 90% or more (almost completely withered)); B: Scirpus juncoides (herbicidal effect grade) [22]: 4 (Herbicidal ratio of 70% or more and less than 90%) |
| CCCSc1nnc2c(C(=O)Nc3nnco3)ccc(C(F)(F)F)n12 [1-108] | 2 (Herbicidal ratio of 20% or more and less than 40%) | 5 (Herbicidal ratio of 90% or more (almost completely withered)) | 5 (Herbicidal ratio of 90% or more (almost completely withered)) | 2 (Herbicidal ratio of 20% or more and less than 40%) | 1 (Herbicidal ratio of 5% or more and less than 20%) | 5 (Herbicidal ratio of 90% or more (almost completely withered)) | 2 (Herbicidal ratio of 20% or more and less than 40%) | 3 (Herbicidal ratio of 40% or more and less than 70%) | 5 (Herbicidal ratio of 90% or more (almost completely withered)) | 5 (Herbicidal ratio of 90% or more (almost completely withered)) | 5 (Herbicidal ratio of 90% or more (almost completely withered)) | 5 (Herbicidal ratio of 90% or more (almost completely withered)) | 4 (Herbicidal ratio of 70% or more and less than 90%) | 1 (Herbicidal ratio of 5% or more and less than 20%) | 4 (Herbicidal ratio of 70% or more and less than 90%) | 1 (Herbicidal ratio of 5% or more and less than 20%) | 3 (Herbicidal ratio of 40% or more and less than 70%) | 5 (Herbicidal ratio of 90% or more (almost completely withered)) | 1 (Herbicidal ratio of 5% or more and less than 20%) | 5 (Herbicidal ratio of 90% or more (almost completely withered)) | C: Monochoria vaginalis (herbicidal effect grade) [21]: 5 (Herbicidal ratio of 90% or more (almost completely withered)); B: Scirpus juncoides (herbicidal effect grade) [22]: 5 (Herbicidal ratio of 90% or more (almost completely withered)) |
| COCCNc1nnc2c(C(=O)Nc3nnc(C)o3)ccc(C(F)(F)F)n12 [1-109] | 0 (Herbicidal ratio of 5% or less (almost no effect)) | 4 (Herbicidal ratio of 70% or more and less than 90%) | 4 (Herbicidal ratio of 70% or more and less than 90%) | 1 (Herbicidal ratio of 5% or more and less than 20%) | 0 (Herbicidal ratio of 5% or less (almost no effect)) | 5 (Herbicidal ratio of 90% or more (almost completely withered)) | 0 (Herbicidal ratio of 5% or less (almost no effect)) | 2 (Herbicidal ratio of 20% or more and less than 40%) | 4 (Herbicidal ratio of 70% or more and less than 90%) | 5 (Herbicidal ratio of 90% or more (almost completely withered)) | 4 (Herbicidal ratio of 70% or more and less than 90%) | 3 (Herbicidal ratio of 40% or more and less than 70%) | 4 (Herbicidal ratio of 70% or more and less than 90%) | 0 (Herbicidal ratio of 5% or less (almost no effect)) | 3 (Herbicidal ratio of 40% or more and less than 70%) | 1 (Herbicidal ratio of 5% or more and less than 20%) | 4 (Herbicidal ratio of 70% or more and less than 90%) | 4 (Herbicidal ratio of 70% or more and less than 90%) | 0 (Herbicidal ratio of 5% or less (almost no effect)) | 0 (Herbicidal ratio of 5% or less (almost no effect)) | C: Monochoria vaginalis (herbicidal effect grade) [21]: 0 (Herbicidal ratio of 5% or less (almost no effect)); B: Scirpus juncoides (herbicidal effect grade) [22]: 2 (Herbicidal ratio of 20% or more and less than 40%) |
| O=C(Nc1nnco1)c1ccc(C(F)(F)F)n2c(N3CCOCC3)nnc12 [1-110] | 3 (Herbicidal ratio of 40% or more and less than 70%) | 5 (Herbicidal ratio of 90% or more (almost completely withered)) | 5 (Herbicidal ratio of 90% or more (almost completely withered)) | 4 (Herbicidal ratio of 70% or more and less than 90%) | 3 (Herbicidal ratio of 40% or more and less than 70%) | 5 (Herbicidal ratio of 90% or more (almost completely withered)) | 3 (Herbicidal ratio of 40% or more and less than 70%) | 4 (Herbicidal ratio of 70% or more and less than 90%) | 5 (Herbicidal ratio of 90% or more (almost completely withered)) | 5 (Herbicidal ratio of 90% or more (almost completely withered)) | 5 (Herbicidal ratio of 90% or more (almost completely withered)) | 5 (Herbicidal ratio of 90% or more (almost completely withered)) | 4 (Herbicidal ratio of 70% or more and less than 90%) | 4 (Herbicidal ratio of 70% or more and less than 90%) | 4 (Herbicidal ratio of 70% or more and less than 90%) | 4 (Herbicidal ratio of 70% or more and less than 90%) | 5 (Herbicidal ratio of 90% or more (almost completely withered)) | 5 (Herbicidal ratio of 90% or more (almost completely withered)) | 3 (Herbicidal ratio of 40% or more and less than 70%) | 5 (Herbicidal ratio of 90% or more (almost completely withered)) | C: Monochoria vaginalis (herbicidal effect grade) [21]: 4 (Herbicidal ratio of 70% or more and less than 90%); B: Scirpus juncoides (herbicidal effect grade) [22]: 4 (Herbicidal ratio of 70% or more and less than 90%) |
